Measurements taken from patent publication US20260317344A1, “EGFR INHIBITORS FOR TREATING DISEASE” (BLOSSOMHILL THERAPEUTICS, INC., priority 2023, published 2026).

What was measured:
[1] = target: EGFR (L858R) (Homo sapiens, UniProt P00533, L858R); assay: HotSpot radiometric kinase assay, inhibition of EGFR L858R mutant; type: biochemical; settings: 33P ATP, room temperature, 120 m
How it was run: (§1)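 Kinase/substrate pairs in 20 mM HEPES pH 7.5, 10 mM MgCl2, 1 mM EGTA, 0.02% Brij35, 0.02 mg/ml BSA, 0.1 mM Na3VO4, 2 mM DTT, 1% DMSO, preincubated ~20 min with compound. Reaction started with ATP/33P-ATP ([…]), run 120 min at room temperature; phosphorylation read by P81 filter binding, IC50 from curve fits.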

[2] = target: EGFR (L858R/T790M) (Homo sapiens, UniProt P00533, L858R/T790M); assay: HotSpot radiometric kinase assay, inhibition of EGFR L858R/T790M mutant; type: biochemical; settings: 33P ATP, room temperature, 120 m
Chain of EGFR (L858R/T790M) (P00533 25-1210 T790M/L858R): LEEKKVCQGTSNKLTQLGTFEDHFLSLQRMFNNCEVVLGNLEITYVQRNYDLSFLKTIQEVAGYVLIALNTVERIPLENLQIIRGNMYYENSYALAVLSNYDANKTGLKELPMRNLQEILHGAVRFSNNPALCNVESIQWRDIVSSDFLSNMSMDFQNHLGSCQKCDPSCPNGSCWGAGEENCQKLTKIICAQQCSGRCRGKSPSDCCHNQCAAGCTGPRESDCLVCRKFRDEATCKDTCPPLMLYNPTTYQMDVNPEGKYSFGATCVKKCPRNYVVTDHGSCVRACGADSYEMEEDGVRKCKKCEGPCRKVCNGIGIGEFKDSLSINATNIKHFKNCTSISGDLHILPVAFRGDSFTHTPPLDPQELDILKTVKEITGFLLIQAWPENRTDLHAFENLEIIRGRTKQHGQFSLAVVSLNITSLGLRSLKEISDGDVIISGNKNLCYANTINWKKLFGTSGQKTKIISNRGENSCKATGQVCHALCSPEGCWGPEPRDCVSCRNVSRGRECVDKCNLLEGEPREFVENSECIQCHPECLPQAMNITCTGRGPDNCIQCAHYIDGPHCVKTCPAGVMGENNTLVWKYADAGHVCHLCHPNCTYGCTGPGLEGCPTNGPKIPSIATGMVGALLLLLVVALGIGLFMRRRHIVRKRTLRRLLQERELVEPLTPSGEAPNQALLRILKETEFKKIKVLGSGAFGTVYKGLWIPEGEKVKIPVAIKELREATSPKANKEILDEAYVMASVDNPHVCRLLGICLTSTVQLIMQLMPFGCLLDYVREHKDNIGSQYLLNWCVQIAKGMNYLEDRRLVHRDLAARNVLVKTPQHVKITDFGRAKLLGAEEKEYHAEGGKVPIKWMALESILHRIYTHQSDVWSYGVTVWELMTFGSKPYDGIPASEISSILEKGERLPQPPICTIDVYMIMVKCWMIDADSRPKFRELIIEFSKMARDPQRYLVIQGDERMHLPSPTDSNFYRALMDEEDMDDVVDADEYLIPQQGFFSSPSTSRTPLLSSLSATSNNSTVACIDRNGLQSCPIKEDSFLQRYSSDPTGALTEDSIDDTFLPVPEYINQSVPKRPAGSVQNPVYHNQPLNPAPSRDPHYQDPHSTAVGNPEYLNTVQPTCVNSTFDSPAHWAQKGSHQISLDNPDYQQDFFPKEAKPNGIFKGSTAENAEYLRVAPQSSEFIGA
How it was run: as §1

[3] = target: EGFR (L858R/T790M/C797S) (Homo sapiens, UniProt P00533, C797S/L858R/T790M); assay: HotSpot radiometric kinase assay, inhibition of EGFR L858R/T790M/C797S mutant; type: biochemical; settings: 33P ATP, room temperature, 120 m
How it was run: as §1

[4] = target: EGFR (D746-750) (Homo sapiens, UniProt P00533, DEL746-750); assay: HotSpot radiometric kinase assay, inhibition of EGFR 746-750 mutant; type: biochemical; settings: 33P ATP, room temperature, 120 m
How it was run: as §1

[5] = target: EGFR (D746-750/C797S) (Homo sapiens, UniProt P00533, C797S/DEL746-750); assay: HotSpot radiometric kinase assay, inhibition of EGFR 746-750/C797S mutant; type: biochemical; settings: 33P ATP, room temperature, 120 m
Chain of EGFR (D746-750/C797S) (P00533 with tags, fused parts or gaps DEL746-750/C797S): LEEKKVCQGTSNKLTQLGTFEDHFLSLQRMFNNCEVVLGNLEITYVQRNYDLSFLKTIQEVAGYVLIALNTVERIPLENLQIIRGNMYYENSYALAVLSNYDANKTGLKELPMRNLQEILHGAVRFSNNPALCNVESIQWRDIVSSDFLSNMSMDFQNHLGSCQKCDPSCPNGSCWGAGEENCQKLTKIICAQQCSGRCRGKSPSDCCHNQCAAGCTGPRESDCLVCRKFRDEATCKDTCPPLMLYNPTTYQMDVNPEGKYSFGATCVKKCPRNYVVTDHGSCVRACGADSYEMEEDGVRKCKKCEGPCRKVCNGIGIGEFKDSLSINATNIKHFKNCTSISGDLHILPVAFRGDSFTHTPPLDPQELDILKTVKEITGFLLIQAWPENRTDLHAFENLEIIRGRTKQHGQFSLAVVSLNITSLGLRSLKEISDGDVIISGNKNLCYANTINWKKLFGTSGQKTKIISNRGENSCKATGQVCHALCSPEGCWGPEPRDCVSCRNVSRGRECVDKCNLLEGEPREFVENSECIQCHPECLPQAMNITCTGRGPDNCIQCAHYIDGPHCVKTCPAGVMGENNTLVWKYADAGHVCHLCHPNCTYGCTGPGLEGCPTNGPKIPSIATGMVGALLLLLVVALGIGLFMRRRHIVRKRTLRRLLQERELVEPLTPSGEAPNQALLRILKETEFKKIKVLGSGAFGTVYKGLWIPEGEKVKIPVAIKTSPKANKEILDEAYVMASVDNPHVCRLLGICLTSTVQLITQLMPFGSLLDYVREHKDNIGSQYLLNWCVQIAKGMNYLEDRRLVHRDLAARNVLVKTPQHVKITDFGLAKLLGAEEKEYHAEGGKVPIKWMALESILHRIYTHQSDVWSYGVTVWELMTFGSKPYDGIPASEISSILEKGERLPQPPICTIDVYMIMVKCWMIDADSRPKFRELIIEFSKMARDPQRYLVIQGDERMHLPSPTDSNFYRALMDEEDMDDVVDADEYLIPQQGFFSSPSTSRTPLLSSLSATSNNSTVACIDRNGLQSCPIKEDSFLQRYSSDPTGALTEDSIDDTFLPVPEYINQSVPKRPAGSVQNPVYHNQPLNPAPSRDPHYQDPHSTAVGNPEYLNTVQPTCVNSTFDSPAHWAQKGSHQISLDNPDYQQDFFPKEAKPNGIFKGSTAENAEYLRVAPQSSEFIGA
How it was run: as §1

[6] = target: EGFR (D770_N771insNPG) (Homo sapiens, UniProt P00533, INS770NPG); assay: HotSpot radiometric kinase assay, inhibition of EGFR (D770_N771insNPG) mutant; type: biochemical; settings: 33P ATP, room temperature, 120 m
How it was run: as §1

[7] = target: EGFR WT (Homo sapiens, UniProt P00533); assay: HotSpot radiometric kinase assay, inhibition of EGFR WT; type: biochemical; settings: 33P ATP, room temperature, 120 m
How it was run: as §1

[8] = target: T1, pEGFR, PC-9 cells (d746-750 EGFR) (Homo sapiens, UniProt P00533, DEL746-750); assay: Cellular EGFR phosphorylation assay (LANCE Ultra TR-FRET) in PC-9 cells; type: cell-based; settings: 4 hours at 37° C., read-out: PC-9 pEGFR IC50
T1 construct: pEGFR (Tyr1068) TR-FRET
T1 sequence (P00533 with tags, fused parts or gaps DEL746-750): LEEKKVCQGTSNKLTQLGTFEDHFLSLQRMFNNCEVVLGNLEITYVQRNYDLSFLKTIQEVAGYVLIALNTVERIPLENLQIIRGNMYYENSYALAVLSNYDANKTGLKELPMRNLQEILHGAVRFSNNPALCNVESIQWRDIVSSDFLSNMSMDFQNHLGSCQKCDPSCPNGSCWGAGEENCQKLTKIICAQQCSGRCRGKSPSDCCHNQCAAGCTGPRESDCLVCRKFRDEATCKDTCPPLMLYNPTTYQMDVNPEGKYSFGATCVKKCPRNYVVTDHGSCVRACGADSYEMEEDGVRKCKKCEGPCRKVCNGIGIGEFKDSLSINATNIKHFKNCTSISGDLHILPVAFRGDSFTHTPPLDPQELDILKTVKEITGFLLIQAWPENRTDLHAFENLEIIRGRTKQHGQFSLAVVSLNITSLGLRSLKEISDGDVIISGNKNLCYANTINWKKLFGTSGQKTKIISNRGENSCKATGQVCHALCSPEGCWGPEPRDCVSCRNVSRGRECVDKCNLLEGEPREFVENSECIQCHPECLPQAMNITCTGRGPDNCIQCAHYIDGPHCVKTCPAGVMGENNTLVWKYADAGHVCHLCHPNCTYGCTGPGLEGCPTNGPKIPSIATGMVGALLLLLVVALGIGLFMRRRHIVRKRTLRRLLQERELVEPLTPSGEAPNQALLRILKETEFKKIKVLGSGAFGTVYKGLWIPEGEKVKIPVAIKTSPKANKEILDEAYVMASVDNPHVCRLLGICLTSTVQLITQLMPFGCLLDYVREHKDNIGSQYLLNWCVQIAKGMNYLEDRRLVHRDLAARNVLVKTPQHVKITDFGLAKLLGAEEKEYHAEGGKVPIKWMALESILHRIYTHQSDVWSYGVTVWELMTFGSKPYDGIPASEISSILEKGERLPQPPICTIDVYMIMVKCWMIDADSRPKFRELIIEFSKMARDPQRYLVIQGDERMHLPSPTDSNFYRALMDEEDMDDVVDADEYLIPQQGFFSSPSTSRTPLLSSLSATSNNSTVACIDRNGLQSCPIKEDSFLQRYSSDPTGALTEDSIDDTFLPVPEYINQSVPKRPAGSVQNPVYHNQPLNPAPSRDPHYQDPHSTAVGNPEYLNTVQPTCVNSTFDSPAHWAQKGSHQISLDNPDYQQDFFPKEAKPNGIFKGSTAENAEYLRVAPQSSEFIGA
How it was run: (§2)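 Phospho-EGFR (Tyr1068) measured by TR-FRET in lysates after 4 h compound exposure at 37° C (9 doses, 3-fold steps). A431 cells, seeded at 30 thousand per well, received 40 ng/mL EGF for the last 10 min; PC-9 and NCI-H1975 seeded at 50 thousand per well, unstimulated. IC50 values reported.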

[9] = target: T2, pEGFR, NCI-H1975 cells (L858R/T790M EGFR) (Homo sapiens, UniProt P00533, L858R/T790M); assay: Cellular EGFR phosphorylation assay (LANCE Ultra TR-FRET) in NCI-H1975 cells; type: cell-based; settings: 4 hours at 37° C., read-out: H1975 pEGFR IC50
T2 construct: pEGFR (Tyr1068) TR-FRET
T2 sequence (P00533 25-1210 T790M/L858R): as the sequence (P00533 25-1210 T790M/L858R) above
How it was run: as §2

[10] = target: T3, pEGFR, A431 cells (wildtype EGFR) (Homo sapiens, UniProt P00533); assay: Cellular EGFR phosphorylation assay (LANCE Ultra TR-FRET) in A431 cells; type: cell-based; settings: 4 hours at 37° C., 40 ng/mL EGF for the final 10 minutes, read-out: A431 pEGFR IC50
T3 construct: pEGFR (Tyr1068) TR-FRET
How it was run: as §2

[11] = test system: PC-9 cells; assay: 5-Day CellTiter Glo (CTG) cell proliferation assay, PC-9; type: cell-based; settings: Homo sapiens; PC-9 cells (d746-750 EGFR), 5-day CTG proliferation, 120 hours; read-out: PC-9 IC50
How it was run: (§3)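 Luminescent ATP signal (CellTiter-Glo 2.0) after 120 hours of compound exposure gave IC50 values. PC-9 and HCC827 harbour EGFR d746-750; NCI-H1975 harbours L858R/T790M.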

[12] = test system: NCI-H1975 cells; assay: 5-Day CellTiter Glo (CTG) cell proliferation assay, NCI-H1975; type: cell-based; settings: Homo sapiens; NCI-H1975 cells (L858R/T790M EGFR), 5-day CTG proliferation, 120 hours; read-out: H1975 IC50
How it was run: as §3

[13] = test system: HCC827 cells; assay: 5-Day CellTiter Glo (CTG) cell proliferation assay, HCC827; type: cell-based; settings: Homo sapiens; HCC827 cells (d746-750 EGFR), 5-day CTG proliferation, 120 hours; read-out: HCC827 IC50
How it was run: as §3

[14] = test system: BaF3 cells with engineered EGFR L858R/T790M/C797S; assay: 3-Day CellTiter Glo (CTG) cell proliferation assay, BaF3 EGFR L858R/T790M/C797S; type: cell-based; settings: Mus musculus, 3-day CTG proliferation, 72 hours
How it was run: (§4)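 Viability after 72 h compound exposure (9 concentrations, 37° C, 5% CO2) was measured as ATP luminescence with CellTiter-Glo 2.0 in EGFR-mutant-engineered BaF3 cells plated at one thousand cells per well. IC50 values obtained by curve fitting.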

[15] = test system: BaF3 cells with engineered EGFR L858R/C797S; assay: 3-Day CellTiter Glo (CTG) cell proliferation assay, BaF3 EGFR L858R/C797S; type: cell-based; settings: Mus musculus, 3-day CTG proliferation, 72 hours
How it was run: as §4

[16] = test system: BaF3 cells with engineered EGFR d746-750/T790M; assay: 3-Day CellTiter Glo (CTG) cell proliferation assay, BaF3 EGFR d746-750/T790M; type: cell-based; settings: Mus musculus; BaF3 EGFR d746-750/T790M cells, 3-day CTG proliferation, 72 hours
How it was run: as §4

| SMILES | IC50 [1] [nM] | IC50 [2] [nM] | IC50 [3] [nM] | IC50 [4] [nM] | IC50 [5] [nM] | IC50 [6] [nM] | IC50 [7] [nM] | IC50 [8] [nM] | IC50 [9] [nM] | IC50 [10] [nM] | IC50 [11] [nM] | IC50 [12] [nM] | IC50 [13] [nM] | IC50 [14] [nM] | IC50 [15] [nM] | IC50 [16] [nM] |
| --- | --- | --- | --- | --- | --- | --- | --- | --- | --- | --- | --- | --- | --- | --- | --- | --- |
| CCN1Cc2c(c(OCC#N)nn2CCO)/C=C/c2n[nH]c3cnc(cc23)-c2c(C)nn(C)c2O[C@@H](C)C1 [Ex. 23, {[(10S,17E)-12-ethyl-14-(2-hydroxyethyl)-6,8,10-trimethyl-2,10,11,12,13,14-hexahydro-8H-5,3-(azenometheno)tripyrazolo[3,4-f:3′,4′-j:4″,3″-n][1,4]oxazacyclopentadecin-16-yl]oxy}acetonitrile] | 1.02 | 0.6 | 0.47 | 0.36 | 1.01 | 0.29 | 0.31 | 3.42 | 5.84 | 43.1 | 2.91 | 10 | 0.41 | 2.69 | 0.43 | 3.77 |
| CCOc1nn([C@@H](C)CO)c2c1/C=C/c1n[nH]c3c(C)nc(cc13)-c1c(C)nn(C)c1O[C@@H](C)CN(C)C2 [Ex. 54, (2S)-2-[(10S,17E)-16-ethoxy-6,8,10,12,20-pentamethyl-2,8,10,11,12,13-hexahydro-14H-5,3-(azenometheno)tripyrazolo[3,4-f:3′,4′-j:4″,3″-n][1,4]oxazacyclopentadecin-14-yl]propan-1-ol] | 0.32 | 1.04 | 0.65 | 0.67 | 0.48 | 0.55 | 0.38 | 0.67 | 0.94 | 10.7 | 0.78 | 0.99 | 0.41 | 0.55 | 0.06 | 0.55 |
| CCOc1nn([C@@H](C)CO)c2c1/C=C/c1n[nH]c3cnc(cc13)-c1c(C)nn(C)c1O[C@@H](C)CN(CC)C2 [Ex. 26, (2S)-2-[(10S,17E)-16-ethoxy-12-ethyl-6,8,10-trimethyl-2,8,10,11,12,13-hexahydro-14H-5,3-(azenometheno)tripyrazolo[3,4-f:3′,4′-j:4″,3″-n][1,4]oxazacyclopentadecin-14-yl]propan-1-ol] | 2.39 | 1.44 | 0.93 | 0.73 | 1.97 | 0.9 | 0.8 | 1.6 | 3.4 | 12.2 | 0.44 | 1.11 | 0.27 | 1.16 | 0.11 | 0.66 |
| CCOc1nn(CCO)c2c1/C=C/c1n[nH]c3c(C)nc(cc13)-c1cnn(C)c1O[C@@H](C)CN(C)C2 [Ex. 29, 2-[(10S,17E)-16-ethoxy-8,10,12,20-tetramethyl-2,8,10,11,12,13-hexahydro-14H-5,3-(azenometheno)tripyrazolo[3,4-f:3′,4′-j:4″,3″-30n][1,4]oxazacyclopentadecin-14-yl]ethan-1-ol] | 0.72 | 0.3 | 0.3 | 0.2 | 0.65 | 0.29 | 0.22 | 3.63 | 0.93 | 13.7 | 11.4 | 1.04 | 1.12 | 0.74 | 0.17 | 0.9 |
| CCN1Cc2c(c(C)nn2CCO)/C=C/c2n[nH]c3cnc(cc23)-c2c(C)nn(C)c2O[C@@H](C)C1 [Ex. 13, 2-[(10S,17E)-12-ethyl-6,8,10,16-tetramethyl-2,8,10,11,12,13-hexahydro-14H-5,3-(azenometheno)tripyrazolo[3,4-f:3′,4′-j:4″,3″-n][1,4]oxazacyclopentadecin-14-yl]ethan-1-ol] | 0.16 | 0.2 | 0.19 | 0.41 | 0.16 | 0.07 | 0.05 | 1 | 2.09 | 12 | 0.38 | 4.27 | 0.26 | 1.05 | 0.1 | 1.46 |
| CCN1Cc2c(c(C)nn2CCO)/C=C/c2n[nH]c3cnc(cc23)-c2c(C)nn(C)c2O[C@H](C)C1 [Ex. 14, 2-[(10R,17E)-12-ethyl-6,8,10,16-tetramethyl-2,8,10,11,12,13-hexahydro-14H-5,3-(azenometheno)tripyrazolo[3,4-f:3′,4′-j:4″,3″-n][1,4]oxazacyclopentadecin-14-yl]ethan-1-ol] | 0.25 | 0.23 | 0.22 | 0.47 | 0.2 | 0.15 | 0.08 | 11.8 | 7.52 | 44.7 | 54.5 | 110 | 2.87 | 5.24 | 1.24 | 22.3 |
| CCOc1nn([C@@H](C)CO)c2c1/C=C/c1n[nH]c3c(C)nc(cc13)-c1c(C)nn(C)c1O[C@H](C)[C@H]1CCCN1C2 [Ex. 180, (2S)-2-[(8aR,9R,19E)-1-ethoxy-9,11,13,21-tetramethyl-7,8,8a,9,11,17-hexahydro-6H-14,16-(azenometheno)tripyrazolo[3,4-f:3′,4′-j:4″,3″-n]pyrrolo[2,1-c][1,4]oxazacyclopentadecin-3(4H)-yl]propan-1-ol] | 0.15 | 0.16 | 0.13 | 0.21 | 0.21 | 0.1 | 0.05 | 0.64 | 1.54 | 6.08 | 0.7 | 0.95 | 0.34 | 0.69 | 0.06 | 0.57 |
| CCOc1nn([C@@H](C)CO)c2c1/C=C/c1n[nH]c3cnc(cc13)-c1c(C)nn(C)c1OC[C@H](C)N(CC)C2 [Ex. 25, (2S)-2-[(11S,17E)-16-ethoxy-12-ethyl-6,8,11-trimethyl-2,8,10,11,12,13-hexahydro-14H-5,3-(azenometheno)tripyrazolo[3,4-f:3′,4′-j:4″,3″-n][1,4]oxazacyclopentadecin-14-yl]propan-1-ol] | 1.88 | 1.39 | 0.51 | 0.51 | 1.02 | 1.23 | 0.55 | 1.24 | 1.93 | 17.9 | 2.97 | 10.3 | 0.46 | 0.85 | 0.13 | 0.63 |
